Measurements from patent US6616919B2, “Dibenzoylmethane sunscreen compositions containing photostabilizing amounts of tri-substituted butane compounds” (Societe l'Oreal S.A., priority 2001, dated 2003).

How the values were obtained:
Assay type in all cases: physicochemical
[1] = Photostability of butylmethoxydibenzoylmethane in Support 1 formulations, xenon lamp exposure, UV spectrometry (Example 1); conditions: Support 1, 2% butylmethoxydibenzoylmethane, X = 0% by weight (no 1,1,1-tris(2-methyl-4-hydroxy-5-tert-butylphenyl)butane); ratio of exposed to unexposed OD
Procedure: The photostability of the dibenzoylmethane compound was evaluated on several formulations in which the amount of 1,1,1-tris(2-methyl-4-hydroxy-5-tert-butylphenyl)butane (X) was varied. The support common to these formulations was as follows: [table] For each formula, 3 test samples and 3 control samples were prepared. 2 mg/cm^2 of formula were deposited by spatula onto polymethyl methacrylate plates. […], to a Sun Test Heraus machine equipped with a xenon lamp and having as UV-A illumination: 3.02×10^−3 W/cm^2, and as UV-B illumination: 2.1×10^−4 W/cm^2, and the control plates were maintained for the same time and at the same temperature (38-40° C.) in darkness. After this time, the screening agents were extracted by immersing each plate in 50 g of ethanol and subjecting them to ultrasound for 15 minutes to ensure good extraction. The solutions obtained were analyzed by UV spectrometry. For each test formula, the amount of residual butylmethoxydibenzoylmethane after exposure is given as the ratio of its optical density (OD) in the exposed sample to its unexposed optical density (OD). […]

[2] = Photostability of butylmethoxydibenzoylmethane in Support 2 formulations containing octyltriazone, xenon lamp exposure, UV spectrometry (Example 2); conditions: Support 2, 0.5% butylmethoxydibenzoylmethane + 1.5% Uvinul T150, X = 0% by weight (no stabilizer)
Procedure: (§1) The photostability of octyltriazone in the presence of butylmethoxydibenzoylmethane was examined on several formulations in which the amount of 1,1,1-tris(2-methyl-4-hydroxy-5-tert-butylphenyl)butane (X) was varied. The support common to these formulations was as follows: [table] For each formula, 3 test samples and 3 control samples were prepared. 2 mg/cm^2 of formula were deposited by spatula onto polymethyl methacrylate plates. […], to a Sun Test Heraus machine equipped with a xenon lamp and having as UV-A illumination: 3.02×10^−3 W/cm^2, and as UV-B illumination: 2.1×10^−4 W/cm^2, and the control plates were maintained for the same time and at the same temperature (38-40° C.) in darkness. After this time, the screening agents were extracted by immersing each plate in 50 g of ethanol and subjecting them to ultrasound for 15 minutes to ensure good extraction. The solutions obtained were analyzed by UV spectrometry. For each test formula, the amount of residual butylmethoxydibenzoylmethane and the residual amount of octyltriazone after exposure is given as the ratio of each respective optical density (OD) in the exposed sample to the unexposed optical density (OD) corresponding to each filter. The machine was set at the maximum absorption corresponding to each filter: Butylmethoxydibenzoylmethane: λmax=358 nm

[3] = Photostability of octyltriazone in the presence of butylmethoxydibenzoylmethane in Support 2 formulations, xenon lamp exposure, UV spectrometry (Example 2); conditions: Support 2, 0.5% butylmethoxydibenzoylmethane + 1.5% Uvinul T150, X = 0% by weight (no stabilizer)
Procedure: as §1, with “Octyltriazone: λmax=312” for “Butylmethoxydibenzoylmethane: λmax=358”

Row | Residual OD at 358 nm after 1 hour of UVA irradiation [1] | Residual OD of the dibenzoylmethane at 358 nm after 1 hour of UVA irradiation [2] | Residual OD of the triazine at 312 nm after 1 hour of UVA irradiation [3] | Structure (SMILES)
1 | 11 ± 1% | 32 ± 4% |  | COc1ccc(C(=O)CC(=O)c2ccc(C(C)(C)C)cc2)cc1 [butylmethoxydibenzoylmethane, 4-(tert-butyl)-4′-methoxydibenzoylmethane]
2 |  |  | 87 ± 13% | CCCCC(CC)COC(=O)c1ccc(Nc2nc(Nc3ccc(C(=O)OCC(CC)CCCC)cc3)nc(Nc3ccc(C(=O)OCC(CC)CCCC)cc3)n2)cc1 (stereo not drawn) [octyltriazone, 2,4,6-tris[p-(2′-ethylhexyl-1′-oxycarbonyl)anilino]-1,3,5-triazine]
